# From patent US4486434A, “Histamine H1 -antagonists” (Smith Kline & French Laboratories Limited, priority 1981, dated 1984)
# Assay: rat whole body radiography
# Format: in vivo
# From the text: This has been shown by rat whole body radiography.
structure (smiles),measurement,value
"Cc1ccc(Cc2cnc(NCCCCc3ncc(Br)cc3C)[nH]c2=O)cn1 [Example 1, 2-[4-(5-bromo-3-methylpyrid-2-yl)-butylamino]-5-(6-methylpyrid-3-yl-methyl)-4-pyrimidone]",entry into the central nervous system,does not enter the central nervous system
